Experimental data from patent US20240269298A1, “PHOSPHONYL DERIVATIVE, AND COMPOSITION AND PHARMACEUTICAL APPLICATION THEREOF” (XIZANG HAISCO PHARMACEUTICAL CO., LTD., priority 2021, published 2024).
Where two headings read alike, the source gives them in different places.

Test system: NCI-H1975 (EGFR-L858R-T790M) cells
Assay: Inhibitory activity on proliferation of NCI-H1975 (EGFR-L858R-T790M) cells (CTG, 72 h)
Assay type: cell-based
Conditions: Homo sapiens
Summary of the method: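 Cells plated at 1000/well (NCI-H1975, RPMI1640+10% FBS) or 3000/well (A431, DMEM+10% FBS), dosed next day with compounds (0.1% DMSO final) for 72 h at 37 °C, 5% CO2. Viability by CTG luminescence, normalised to vehicle control; IC50 from nonlinear-regression dose-survival curves.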

[1] = read-out: IC50 (value in brackets)

SMILES | IC50 (read-out: IC50 (class symbol)) [nM] | IC50 [1] [nM]
COc1cc(N2CCN(CC3CCN(c4ccc(C(=O)NC5CCC(=O)NC5=O)nc4)CC3)CC2)c(-c2cnn(C)c2)cc1Nc1ncc(Br)c(Nc2ccc(-c3ccccc3)cc2P(C)(C)=O)n1 (stereo not shown) [Compound 123, 5-(4-((4-(4-((5-bromo-4-((3-(dimethylphosphoryl)-[1,1′-biphenyl]-4-yl)amino)pyrimidin-2-yl)amino)-5-methoxy-2-(1-methyl-1H-pyrazol-4-yl)phenyl)piperazin-1-yl)methyl)piperidin-1-yl)-N-(2,6-dioxopiperidin-3-yl)picolinamide] | < 100 | 51
COc1cc(N2CCC(CN3CCN(c4ccc(N5CCC(=O)NC5=O)cc4)CC3)CC2)c(-c2cnn(C)c2)cc1Nc1ncc(Cl)c(Nc2ccccc2P(C)(C)=O)n1 [Compound 132, 1-(4-(4-((1-(4-((5-chloro-4-((2-(dimethylphosphoryl)phenyl)amino)pyrimidin-2-yl)amino)-5-methoxy-2-(1-methyl-1H-pyrazol-4-yl)phenyl)piperidin-4-yl)methyl)piperazin-1-yl)phenyl)dihydropyrimidine-2,4(1H,3H)-dione] | 100 to 500 | 296
COc1cc(N2CCN(C3CCN(CC4CCN(c5ccc6c(c5)C(=O)N(C5CCC(=O)NC5=O)C6=O)CC4)CC3)CC2)c(C2CC2)cc1Nc1ncc(Cl)c(Nc2ccc3nccnc3c2P(C)(C)=O)n1 (stereo not shown) [Compound 26, 5-(4-((4-(4-(4-((5-chloro-4-((5-(dimethylphosphoryl)quinoxalin-6-yl)amino)pyrimidin-2-yl)amino)-2-cyclopropyl-5-methoxyphenyl)piperazin-1-yl)piperidin-1-yl)methyl)piperidin-1-yl)-2-(2,6-dioxopiperidin-3-yl)isoindoline-1,3-dione] | 100 to 500 | –
COc1cc(N2CCC(CN3CCN(c4ccc(C5CCC(=O)NC5=O)cc4)CC3)CC2)c(-c2cnn(C)c2)cc1Nc1ncc(Cl)c(Nc2ccccc2P(C)(C)=O)n1 (stereo not shown) [Compound 135, 3-(4-(4-((1-(4-((5-chloro-4-((2-(dimethylphosphoryl)phenyl)amino)pyrimidin-2-yl)amino)-5-methoxy-2-(1-methyl-1H-pyrazol-4-yl)phenyl)piperidin-4-yl)methyl)piperazin-1-yl)phenyl)piperidine-2,6-dione] | < 100 | 82
COc1cc(N2CCC3(CCN(CC4CCN(c5cc6c(cc5F)C(=O)N(C5CCC(=O)NC5=O)C6=O)CC4)CC3)CC2)c(-c2cnn(C)c2)cc1Nc1ncc(Cl)c(Nc2ccc3nccnc3c2P(C)(C)=O)n1 (stereo not shown) [Compound 27, 5-(4-((9-(4-((5-chloro-4-((5-(dimethylphosphoryl)quinoxalin-6-yl)amino)pyrimidin-2-yl)amino)-5-methoxy-2-(1-methyl-1H-pyrazol-4-yl)phenyl)-3,9-diazaspiro[5.5]undecan-3-yl)methyl)piperidin-1-yl)-2-(2,6-dioxopiperidin-3-yl)-6-fluoroisoindoline-1,3-dione] | < 100 | 20
COc1cc(N2CCC3(CCN(CC4CCN(c5cc6c(cc5F)C(=O)N(C5CCC(=O)NC5=O)C6=O)CC4)CC3)CC2)c(-c2cnn(C)c2)cc1Nc1ncc(Br)c(Nc2ccc3nccnc3c2P(C)(C)=O)n1 (stereo not shown) [Compound 21, 5-(4-((9-(4-((5-bromo-4-((5-(dimethylphosphoryl)quinoxalin-6-yl)amino)pyrimidin-2-yl)amino)-5-methoxy-2-(1-methyl-1H-pyrazol-4-yl)phenyl)-3,9-diazaspiro[5.5]undecan-3-yl)methyl)piperidin-1-yl)-2-(2,6-dioxopiperidin-3-yl)-6-fluoroisoindoline-1,3-dione] | < 100 | 39
COc1cc(N2CCC(N3CCN(CC4CCN(c5cc6c(cc5F)C(=O)N(C5CCC(=O)NC5=O)C6=O)CC4)CC3)CC2)c(-c2cnn(C)c2)cc1Nc1ncc(Cl)c(Nc2ccc3nccnc3c2P(C)(C)=O)n1 (stereo not shown) [Compound 5, 5-(4-((4-(1-(4-((5-chloro-4-((5-(dimethylphosphoryl)quinoxalin-6-yl)amino)pyrimidin-2-yl)amino)-5-methoxy-2-(1-methyl-1H-pyrazol-4-yl)phenyl)piperidin-4-yl)piperazin-1-yl)methyl)piperidin-1-yl)-2-(2,6-dioxopiperidin-3-yl)-6-fluoroisoindoline-1,3-dione] | < 100 | 52
COc1cc(N2CCC(N3CCC(CN4CCN(c5ccc6c(c5)C(=O)N(C5CCC(=O)NC5=O)C6=O)CC4)CC3)CC2)c(-c2cnn(C)c2)cc1Nc1ncc(Br)c(Nc2ccc3nccnc3c2P(C)(C)=O)n1 (stereo not shown) [Trifluoroacetate of compound 19, 5-(4-((1′-(4-((5-bromo-4-((5-(dimethylphosphoryl)quinoxalin-6-yl)amino)pyrimidin-2-yl)amino)-5-methoxy-2-(1-methyl-1H-pyrazol-4-yl)phenyl)-[1,4′-bipiperidin]-4-yl)methyl)piperazin-1-yl)-2-(2,6-dioxopiperidin-3-yl)isoindoline-1,3-dione] | < 100 | 42
COc1cc(N2CCC(CN3CCN(c4ccc(C5CCC(=O)NC5=O)cc4)CC3)CC2)c(-c2cnn(C)c2)cc1Nc1ncc(Cl)c(Nc2ccc(-c3ccccc3)cc2P(C)(C)=O)n1 (stereo not shown) [Compound 155, 3-(4-(4-((1-(4-((5-chloro-4-((3-(dimethylphosphoryl)-[1,1′-biphenyl]-4-yl)amino)pyrimidin-2-yl)amino)-5-methoxy-2-(1-methyl-1H-pyrazol-4-yl)phenyl)piperidin-4-yl)methyl)piperazin-1-yl)phenyl)piperidine-2,6-dione] | < 100 | 43
COc1cc(N2CCC(CN3CCC4(CC3)CCN(c3ccc(C(=O)NC5CCC(=O)NC5=O)nc3)CC4)CC2)c(-c2cnn(C)c2)cc1Nc1ncc(Cl)c(Nc2ccc(-c3ccccc3)cc2P(C)(C)=O)n1 (stereo not shown) [Compound 70, 5-(9-((1-(4-((5-chloro-4-((3-(dimethylphosphoryl)-[1,1′-biphenyl]-4-yl)amino)pyrimidin-2-yl)amino)-5-methoxy-2-(1-methyl-1H-pyrazol-4-yl)phenyl)piperidin-4-yl)methyl)-3,9-diazaspiro[5.5]undecan-3-yl)-N-(2,6-dioxopiperidin-3-yl)picolinamide] | < 100 | 39
COc1cc(N2CCC(CN3CCN(c4ccc(C(=O)NC5CCC(=O)NC5=O)nc4)CC3)CC2)c(-c2cnn(C)c2)cc1Nc1ncc(Br)c(Nc2ccc(-c3ccccc3)cc2P(C)(C)=O)n1 (stereo not shown) [Compound 64, 5-(4-((1-(4-((5-bromo-4-((3-(dimethylphosphoryl)-[1,1′-biphenyl]-4-yl)amino)pyrimidin-2-yl)amino)-5-methoxy-2-(1-methyl-1H-pyrazol-4-yl)phenyl)piperidin-4-yl)methyl)piperazin-1-yl)-N-(2,6-dioxopiperidin-3-yl)picolinamide] | < 100 | 82
COc1cc(N2CCC(CN3CCN(c4ccc(C5CCC(=O)NC5=O)c(F)c4)CC3)CC2)c(-c2cnn(C)c2)cc1Nc1ncc(Cl)c(Nc2ccccc2P(C)(C)=O)n1 (stereo not shown) [Compound 154, 3-(4-(4-((1-(4-((5-chloro-4-((2-(dimethylphosphoryl)phenyl)amino)pyrimidin-2-yl)amino)-5-methoxy-2-(1-methyl-1H-pyrazol-4-yl)phenyl)piperidin-4-yl)methyl)piperazin-1-yl)-2-fluorophenyl)piperidine-2,6-dione] | < 100 | 46
COc1cc(N2CCC(N3CCC4(CCCN(c5cc6c(cc5F)C(=O)N(C5CCC(=O)NC5=O)C6=O)C4)CC3)CC2)c(-c2cnn(C)c2)cc1Nc1ncc(Cl)c(Nc2ccc3nccnc3c2P(C)(C)=O)n1 (stereo not shown) [Compound 28, 5-(9-(1-(4-((5-chloro-4-((5-(dimethylphosphoryl)quinoxalin-6-yl)amino)pyrimidin-2-yl)amino)-5-methoxy-2-(1-methyl-1H-pyrazol-4-yl)phenyl)piperidin-4-yl)-2,9-diazaspiro[5.5]undecan-2-yl)-2-(2,6-dioxopiperidin-3-yl)-6-fluoroisoindoline-1,3-dione] | < 100 | 33
COc1cc(N2CCN(Cc3cccc(NC4CCC(=O)NC4=O)c3)CC2)c(-c2cnn(C)c2)cc1Nc1ncc(Br)c(Nc2ccc(-c3ccccc3)cc2P(C)(C)=O)n1 (stereo not shown) [Compound 74, 3-((3-((4-(4-((5-bromo-4-((3-(dimethylphosphoryl)-[1,1′-biphenyl]-4-yl)amino)pyrimidin-2-yl)amino)-5-methoxy-2-(1-methyl-1H-pyrazol-4-yl)phenyl)piperazin-1-yl)methyl)phenyl)amino)piperidine-2,6-dione] | 100 to 500 | 313
COc1cc(N2CCC(C3CCN(CC4CCN(c5ccc6c(c5)C(=O)N(C5CCC(=O)NC5=O)C6=O)CC4)CC3)CC2)c(-c2cnn(C)c2)cc1Nc1ncc(Cl)c(Nc2ccc3nccnc3c2P(C)(C)=O)n1 (stereo not shown) [Trifluoroacetate of compound 13, 5-(4-((1′-(4-((5-chloro-4-((5-(dimethylphosphoryl)quinoxalin-6-yl)amino)pyrimidin-2-yl)amino)-5-methoxy-2-(1-methyl-1H-pyrazol-4-yl)phenyl)-[4,4′-bipiperidin]-1-yl)methyl)piperidin-1-yl)-2-(2,6-dioxopiperidin-3-yl)isoindoline-1,3-dione] | < 100 | 37
COc1cc(N2CCC(N3CCC(N4CCC5(CCCN(c6ccc7c(c6)C(=O)N(C6CCC(=O)NC6=O)C7=O)C5)CC4)CC3)CC2)c(-c2cnn(C)c2)cc1Nc1ncc(Cl)c(Nc2ccc3nccnc3c2P(C)(C)=O)n1 (stereo not shown) [Compound 15, 5-(9-(1′-(4-((5-chloro-4-((5-(dimethylphosphoryl)quinoxalin-6-yl)amino)pyrimidin-2-yl)amino)-5-methoxy-2-(1-methyl-1H-pyrazol-4-yl)phenyl)-[1,4′-bipiperidin]-4-yl)-2,9-diazaspiro[5.5]undecan-2-yl)-2-(2,6-dioxopiperidin-3-yl)isoindoline-1,3-dione] | < 100 | 66
